Test results reported in PMC4297543 (Bioorganic & medicinal chemistry letters, 2014).

Biological target: recombinant β-secretase (Homo sapiens, UniProt P56817)
Assay: β-secretase
Type: biochemical

Sequence of recombinant β-secretase (P56817 46-501): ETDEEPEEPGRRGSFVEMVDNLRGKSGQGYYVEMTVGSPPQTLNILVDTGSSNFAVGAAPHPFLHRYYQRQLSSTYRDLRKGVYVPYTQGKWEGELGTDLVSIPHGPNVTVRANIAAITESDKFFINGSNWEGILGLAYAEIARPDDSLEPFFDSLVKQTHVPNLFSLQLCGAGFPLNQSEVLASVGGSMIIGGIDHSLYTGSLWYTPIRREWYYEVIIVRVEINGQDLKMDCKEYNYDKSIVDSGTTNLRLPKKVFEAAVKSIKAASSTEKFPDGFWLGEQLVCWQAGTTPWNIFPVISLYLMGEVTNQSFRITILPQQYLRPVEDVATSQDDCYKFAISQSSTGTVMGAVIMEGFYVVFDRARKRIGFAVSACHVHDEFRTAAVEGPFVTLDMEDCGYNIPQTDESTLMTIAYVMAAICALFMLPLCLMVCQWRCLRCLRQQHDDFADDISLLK

SMILES	drop in potency with respect to 3a (ratio of BACE1 Ki to that of 3a) [fold]	improvement over inhibitor 4a (ratio of BACE1 potency to that of 4a)
Cc1cc(C)n(C[C@@H](C)C(=O)N[C@@H](CNC(=O)OC(C)(C)C)C(=O)N[C@@H](CC(C)C)[C@@H](O)C[C@@H](C)C(=O)N[C@H](C(=O)NCC(C)C)C(C)C)n1 [Inhibitor 3b]	~40	–
Cc1csc(C[C@H](C)C(=O)N[C@@H](CNC(=O)OC(C)(C)C)C(=O)N[C@@H](CC(C)C)[C@@H](O)C[C@@H](C)C(=O)N[C@H](C(=O)NCC(C)C)C(C)C)n1 [Inhibitor 4c]	–	over 120 fold
